# Reference: patent US4211772A, “Benzopyran glycoside acetals and ketals” (Laboratoires Sarget, priority 1977, dated 1980)
# Read-outs that look alike come from different tables or passages of the source.
# How the values were obtained:
# Solubilities in water = format: physicochemical; settings: water; read-out: Solubilities in water
# capillary permeability = experiment: Capillaroprotecting effects: capillary permeability; format: in vivo, conventional male Wistar rats
# Method: (§1) Capillaroprotecting effects
# The capillary permeability was determined by the method of Charlier et al, Arch. Inter. Physiol.
# carragenin edema = experiment: Anti-inflammatory activity: carragenin edema test; format: in vivo; settings: for % inhibition of carragenin edema: borate buffer pH 7, 24 h; for inhibition in vivo at 35 mg/kg / inhibition in vivo at 40 mg/kg / inhibition in vivo at 75 mg/kg / inhibition in vivo at 100 mg/kg / inhibition in vivo at 200 mg/kg: Rattus norvegicus, ip
# How it was run: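 Male Wistar EOPS rats receive 0.1 ml of 5% carragenin suspension in physiological serum into the hind-paw metatarsal muscle, with test substance given i.p. in neutralized solution at the same time. Paw edema is measured by plethysmometry at several times after carragenin and reported as % inhibition against pH-matched physiological serum controls.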
# capillary resistance = experiment: Capillaroprotecting effects: capillary resistance; format: in vivo, male OFA EOPS rats
# Method: as §1
# The capillary resistance was determined by a variant of the method of Charlier et al, Arch. Inter. Physiol.
# Aldose Reductase = target: T1, Aldose Reductase (Bos taurus, UniProt P16116); experiment: Inhibition of aldose reductase in vitro (enzyme from beef eye lenses, glyceraldehyde substrate); format: biochemical; settings: in DMF solution, read-out: percentages of inhibition (aldose reductase)
# T1 construct: The enzyme is extracted from beef eye lenses; from tissue; host or cells: beef eye lenses
# Description: Inhibition of Aldose Reductase In Vitro
# The reoxidation of NADPH coupled to the enzymatic reaction was followed spectrophotometrically at 340 nm.
smiles,measurement,setting,value
"C[C@@H]1O[C@@H](OC[C@H]2O[C@@H](Oc3c(-c4ccc(O)c(O)c4)oc4cc(O)cc(O)c4c3=O)[C@H](O)[C@@H](O)[C@@H]2O)[C@@H]2OC3(CCCCC3)O[C@@H]2[C@H]1O [No. 6, 3-O-(2,3-O,O-cyclohexylidene-6-α-L-rhamnosyl-β-D-glucosyl)-quercitin]",solubility,Solubilities in water,< 100 µg/mL
same,percentage reduction of capillary permeability,capillary permeability; 50 mg/kg i.p.,21%
same,percentage reduction of capillary permeability,capillary permeability; 100 mg/kg i.p.,20%
same,percentage reduction of capillary permeability,capillary permeability; 200 mg/kg i.p.,23%
same,% inhibition of carragenin edema,carragenin edema; 35 mg/kg i.p.,27%
same,% inhibition of carragenin edema,carragenin edema; 75 mg/kg i.p.,21%
same,% inhibition of carragenin edema,carragenin edema; 100 mg/kg i.p.,37%
same,% inhibition of carragenin edema,carragenin edema; 200 mg/kg i.p.,0%
same,inhibition in vivo at 35 mg/kg,"carragenin edema; 1 h, pH 7, read-out: % inhibition of carragenin edema, 35 mg/kg i.p., borate buffer pH 7, 1 h",32%
same,inhibition in vivo at 35 mg/kg,"carragenin edema; 1 h, pH 7, read-out: % inhibition of carragenin edema, 35 mg/kg i.p., borate buffer pH 7, 1 h 1/2",23%
same,inhibition in vivo at 40 mg/kg,"carragenin edema; 1 h, pH 7, read-out: % inhibition of carragenin edema, 40 mg/kg i.p., borate buffer pH 7, 1 h",23%
same,inhibition in vivo at 40 mg/kg,"carragenin edema; 1 h, pH 7, read-out: % inhibition of carragenin edema, 40 mg/kg i.p., borate buffer pH 7, 1 h 1/2",11%
same,inhibition in vivo at 75 mg/kg,"carragenin edema; 1 h, pH 7, read-out: % inhibition of carragenin edema, 75 mg/kg i.p., borate buffer pH 7, 1 h",9%
same,inhibition in vivo at 75 mg/kg,"carragenin edema; 1 h, pH 7, read-out: % inhibition of carragenin edema, 75 mg/kg i.p., borate buffer pH 7, 1 h 1/2",3%
same,inhibition in vivo at 100 mg/kg,"carragenin edema; 1 h, pH 7, read-out: % inhibition of carragenin edema, 100 mg/kg i.p., borate buffer pH 7, 1 h",20%
same,inhibition in vivo at 100 mg/kg,"carragenin edema; 1 h, pH 7, read-out: % inhibition of carragenin edema, 100 mg/kg i.p., borate buffer pH 7, 1 h 1/2",9%
same,inhibition in vivo at 200 mg/kg,"carragenin edema; 1 h, pH 7, read-out: % inhibition of carragenin edema, 200 mg/kg i.p., borate buffer pH 7, 1 h",19%
same,inhibition in vivo at 200 mg/kg,"carragenin edema; 1 h, pH 7, read-out: % inhibition of carragenin edema, 200 mg/kg i.p., borate buffer pH 7, 1 h 1/2",2%
same,inhibition in vivo at 35 mg/kg,"carragenin edema; 2 h, pH 7, read-out: % inhibition of carragenin edema, 35 mg/kg i.p., borate buffer pH 7, 2 h",33%
same,inhibition in vivo at 40 mg/kg,"carragenin edema; 2 h, pH 7, read-out: % inhibition of carragenin edema, 40 mg/kg i.p., borate buffer pH 7, 2 h",7%
same,inhibition in vivo at 75 mg/kg,"carragenin edema; 2 h, pH 7, read-out: % inhibition of carragenin edema, 75 mg/kg i.p., borate buffer pH 7, 2 h",14%
same,inhibition in vivo at 100 mg/kg,"carragenin edema; 2 h, pH 7, read-out: % inhibition of carragenin edema, 100 mg/kg i.p., borate buffer pH 7, 2 h",1%
same,inhibition in vivo at 200 mg/kg,"carragenin edema; 2 h, pH 7, read-out: % inhibition of carragenin edema, 200 mg/kg i.p., borate buffer pH 7, 2 h",4%
same,inhibition in vivo at 35 mg/kg,"carragenin edema; 3 h, pH 7, read-out: % inhibition of carragenin edema, 35 mg/kg i.p., borate buffer pH 7, 3 h",9%
same,inhibition in vivo at 40 mg/kg,"carragenin edema; 3 h, pH 7, read-out: % inhibition of carragenin edema, 40 mg/kg i.p., borate buffer pH 7, 3 h",2%
same,inhibition in vivo at 75 mg/kg,"carragenin edema; 3 h, pH 7, read-out: % inhibition of carragenin edema, 75 mg/kg i.p., borate buffer pH 7, 3 h",17%
same,inhibition in vivo at 100 mg/kg,"carragenin edema; 3 h, pH 7, read-out: % inhibition of carragenin edema, 100 mg/kg i.p., borate buffer pH 7, 3 h",2%
same,inhibition in vivo at 200 mg/kg,"carragenin edema; 3 h, pH 7, read-out: % inhibition of carragenin edema, 200 mg/kg i.p., borate buffer pH 7, 3 h",0%
same,inhibition in vivo at 35 mg/kg,"carragenin edema; 4 h, pH 7, read-out: % inhibition of carragenin edema, 35 mg/kg i.p., borate buffer pH 7, 4 h",7%
same,inhibition in vivo at 40 mg/kg,"carragenin edema; 4 h, pH 7, read-out: % inhibition of carragenin edema, 40 mg/kg i.p., borate buffer pH 7, 4 h",5%
same,inhibition in vivo at 75 mg/kg,"carragenin edema; 4 h, pH 7, read-out: % inhibition of carragenin edema, 75 mg/kg i.p., borate buffer pH 7, 4 h",0%
same,inhibition in vivo at 100 mg/kg,"carragenin edema; 4 h, pH 7, read-out: % inhibition of carragenin edema, 100 mg/kg i.p., borate buffer pH 7, 4 h",10%
same,inhibition in vivo at 200 mg/kg,"carragenin edema; 4 h, pH 7, read-out: % inhibition of carragenin edema, 200 mg/kg i.p., borate buffer pH 7, 4 h",8%
same,inhibition in vivo at 35 mg/kg,"carragenin edema; 5 h, pH 7, read-out: % inhibition of carragenin edema, 35 mg/kg i.p., borate buffer pH 7, 5 h",10%
same,inhibition in vivo at 40 mg/kg,"carragenin edema; 5 h, pH 7, read-out: % inhibition of carragenin edema, 40 mg/kg i.p., borate buffer pH 7, 5 h",2%
same,inhibition in vivo at 75 mg/kg,"carragenin edema; 5 h, pH 7, read-out: % inhibition of carragenin edema, 75 mg/kg i.p., borate buffer pH 7, 5 h",7%
same,inhibition in vivo at 100 mg/kg,"carragenin edema; 5 h, pH 7, read-out: % inhibition of carragenin edema, 100 mg/kg i.p., borate buffer pH 7, 5 h",15%
same,inhibition in vivo at 200 mg/kg,"carragenin edema; 5 h, pH 7, read-out: % inhibition of carragenin edema, 200 mg/kg i.p., borate buffer pH 7, 5 h",9%
same,inhibition in vivo at 35 mg/kg,"carragenin edema; 6 h, pH 7, read-out: % inhibition of carragenin edema, 35 mg/kg i.p., borate buffer pH 7, 6 h",14%
same,inhibition in vivo at 40 mg/kg,"carragenin edema; 6 h, pH 7, read-out: % inhibition of carragenin edema, 40 mg/kg i.p., borate buffer pH 7, 6 h",0%
same,inhibition in vivo at 75 mg/kg,"carragenin edema; 6 h, pH 7, read-out: % inhibition of carragenin edema, 75 mg/kg i.p., borate buffer pH 7, 6 h",13%
same,inhibition in vivo at 100 mg/kg,"carragenin edema; 6 h, pH 7, read-out: % inhibition of carragenin edema, 100 mg/kg i.p., borate buffer pH 7, 6 h",5%
same,inhibition in vivo at 200 mg/kg,"carragenin edema; 6 h, pH 7, read-out: % inhibition of carragenin edema, 200 mg/kg i.p., borate buffer pH 7, 6 h",1%
same,inhibition in vivo at 35 mg/kg,"carragenin edema; read-out: % inhibition of carragenin edema, 35 mg/kg i.p., borate buffer pH 7, 1/2 h",26%
same,inhibition in vivo at 40 mg/kg,"carragenin edema; read-out: % inhibition of carragenin edema, 40 mg/kg i.p., borate buffer pH 7, 1/2 h",28%
same,inhibition in vivo at 75 mg/kg,"carragenin edema; read-out: % inhibition of carragenin edema, 75 mg/kg i.p., borate buffer pH 7, 1/2 h",29%
same,inhibition in vivo at 100 mg/kg,"carragenin edema; read-out: % inhibition of carragenin edema, 100 mg/kg i.p., borate buffer pH 7, 1/2 h",23%
same,inhibition in vivo at 200 mg/kg,"carragenin edema; read-out: % inhibition of carragenin edema, 200 mg/kg i.p., borate buffer pH 7, 1/2 h",14%
same,% of animals for which the effect is ≥ 25 u cm Hg/h,capillary resistance; 50 mg/kg i.p.,30%
same,"capillary resistance, effect observed",capillary resistance; 50 mg/kg i.p.,19.75 ± 10.2 u cm Hg/h
same,% of animals for which the effect is ≥ 25 u cm Hg/h,capillary resistance; 100 mg/kg i.p.,40%
same,"capillary resistance, effect observed",capillary resistance; 100 mg/kg i.p.,25.5 ± 13.2 u cm Hg/h
same,% of animals for which the effect is ≥ 25 u cm Hg/h,capillary resistance; 200 mg/kg i.p.,90%
same,"capillary resistance, effect observed",capillary resistance; 200 mg/kg i.p.,37.75 ± 12.9 u cm Hg/h
same,inhibition at 100 µM,Aldose Reductase; 10^-4 mole/l,93%
same,inhibition at 10 µM,Aldose Reductase; 10^-5 mole/l,66%
same,inhibition at 1 µM,Aldose Reductase; 10^-6 mole/l,10%
